Structures can show the parent of a compound that is named as a salt. Where two headings read alike, the source gives them in different places.
Tests used:
[1] = molecular target: T1, CYP121A1 (Mycobacterium tuberculosis, UniProt P9WPP7); assay: X-ray crystallographic screening (crystal soaking); type: binding; settings: soaking experiments
T1 construct: made in house

[2] = tested on: Mtb H37Rv; assay: Antimycobacterial activity assay (resazurin colorimetric, whole-cell); type: cell-based, Mycobacterium tuberculosis; settings: for MIC90: Mycobacterium tuberculosis, H37RV; for Activity against Mtb: three growth media
[3] = molecular target: T2, Mtb CYP121A1 (Mycobacterium tuberculosis, UniProt P9WPP7); assay: biochemical; type: binding; settings: 25 °C, 50 μM CYP121A1, 10% DMSO-d6; read-out: Kd (ITC)
T2 construct: His6; made in house

[4] = molecular target: T2, Mtb CYP121A1; assay: Differential scanning fluorimetry (DSF); type: binding; settings: read-out: ΔTm
[5] = molecular target: T1, CYP121A1; assay: biochemical; type: binding; settings: for Kd: UV-Vis titration, compounds screened at 300 μM, Type II Soret shift, 28 °C
[6] = tested on: Mtb strain H37Rv; settings: comparison with 61; cited from earlier work
[7] = molecular target: T1, CYP121A1; type: biochemical; settings: 100 μM compound + 100 μM cYY
[8] = molecular target: T1, CYP121A1; type: binding; settings: Kd for cYY over the cYY control
[9] = 168 h, Mtb H37Rv, 7H9 with low BSA (0.05% albumin, ADN), one week, read-out: MIC90 7H9-Low BSA
[10] = 168 h, Mtb H37Rv, Middlebrook 7H9 with 10% ADC (BSA rich), one week, read-out: MIC90 c7H9
[11] = 336 h, Mtb H37Rv, Mycobacterial Minimal Medium with cholesterol, two weeks, read-out: MIC90 MMM-Ch
[12] = medium not specified or span over the three growth media tested, read-out: MIC90 against Mtb strain H37Rv

T2 sequence (P9WPP7 whole entry): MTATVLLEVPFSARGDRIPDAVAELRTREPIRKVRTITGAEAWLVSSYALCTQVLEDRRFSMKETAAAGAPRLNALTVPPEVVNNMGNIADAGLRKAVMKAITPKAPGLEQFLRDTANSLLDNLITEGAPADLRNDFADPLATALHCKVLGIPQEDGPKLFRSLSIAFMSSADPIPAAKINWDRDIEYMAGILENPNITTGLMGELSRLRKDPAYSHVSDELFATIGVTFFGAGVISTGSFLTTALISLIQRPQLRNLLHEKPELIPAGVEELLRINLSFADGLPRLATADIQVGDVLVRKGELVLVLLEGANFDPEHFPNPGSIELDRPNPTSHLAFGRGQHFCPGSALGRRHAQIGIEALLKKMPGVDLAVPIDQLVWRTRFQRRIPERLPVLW
T1 sequence (P9WPP7 whole entry): as above

For `Brc1ccc2[nH]cc(CCc3ccnc(N4CCOCC4)n3)c2c1` [Compound 21, 4-(4-(2-(5-Bromo-1H-indol-3-yl)ethyl)pyrimidin-2-yl)morpholine], which “X-ray crystallographic screening result” value [1] is on record?
The value was “hits”.

Which MIC90 [2, 9] does the source give for `FC(F)(F)Oc1ccc(-c2nccc(CCc3c[nH]c4ccccc34)n2)cc1` [Compound 34, 3-(2-(2-(4-(Trifluoromethoxy)phenyl)pyrimidin-4-yl)ethyl)-1H-indole] here?
The MIC90 was 100 µM.

And the MIC90 [2, 10]?
Its MIC90 is 100 µM.

And the MIC90 [2, 11]?
The MIC90 was 12.5 µM.

And the MIC90 [2, 12]?
Its MIC90 is 12.5 to 50 µM.

Which “X-ray crystallographic screening result” value [1] does the source give for `COC1CN(c2nccc(CCc3c[nH]c4ccc(Br)cc34)n2)C1` [Compound 33, 5-Bromo-3-(2-(2-(3-methoxyazetidin-1-yl)pyrimidin-4-yl)ethyl)-1H-indole] here?
Its value is “hits”.

What does the source list for `Nc1[nH]nc(-c2ccc(O)cc2)c1-c1ccc(O)cc1` [Compound 45, reference compound]?
Kd [3]: 20 to 25 µM; ΔTm at 1000 µM [4]: 1 °C

Which MIC90 [2, 9] does the source give for `Brc1ccc2[nH]cc(CCc3ccnc(N4CCCO4)n3)c2c1` [Compound 30, 2-(4-(2-(5-Bromo-1H-indol-3-yl)ethyl)pyrimidin-2-yl)isoxazolidine] here?
The MIC90 was 200 µM.

What about the MIC90 [2, 10] of the same compound?
Its MIC90 is 200 µM.

And the MIC90 [2, 11]?
The MIC90 was 100 µM.

For `COC1CN(c2nccc(CCc3c[nH]c4ccc(Cl)cc34)n2)C1` [Compound 32, 5-Chloro-3-(2-(2-(3-methoxyazetidin-1-yl)pyrimidin-4-yl)ethyl)-1H-indole], which MIC90 [2, 9] is on record?
The MIC90 was 100 µM.

What about the MIC90 [2, 10] of the same compound?
The MIC90 was 200 µM.

What about the MIC90 [2, 11] of the same compound?
Its MIC90 is 50 µM.

What about the MIC90 [2, 12] of the same compound?
The MIC90 was 12.5 to 50 µM.

Which results are given for `CN1CCN(c2nccc(CCc3c[nH]c4ccc(Br)cc34)n2)CC1` [Compound 23, 5-Bromo-3-(2-(2-(4-methylpiperazin-1-yl)pyrimidin-4-yl)ethyl)-1H-indole]?
MIC90 [2, 9]: 25 µM; MIC90 [2, 10]: 100 µM; MIC90 [2, 11]: 12.5 µM; MIC90 [2, 12]: 12.5 to 50 µM

Which Kd [5] does the source give for `Brc1ccc2[nH]cc(CCc3ccncc3)c2c1` [Compound 9] here?
Its Kd is 3.8 ± 0.5 µM.

With `Oc1ccc2[nH]cc(CCc3ccnc(N4CCOCC4)n3)c2c1` [Compound 55, 3-(2-(2-Morpholinopyrimidin-4-yl)ethyl)-1H-indol-5-ol] as the compound, how does the ΔTm at 1000 µM [4] read?
The ΔTm at 1000 µM was 0.5 °C.

Which results are given for `CO[C@H]1/C=C/O[C@@]2(C)Oc3c(C)c(O)c4c(O)c(c(/C=N/N5CCN(C)CC5)c(O)c4c3C2=O)NC(=O)/C(C)=C\C=C\[C@H](C)[C@H](O)[C@@H](C)[C@@H](O)[C@@H](C)[C@H](OC(C)=O)[C@@H]1C` [Rifampicin, reference compound]?
MIC90 [2, 9]: 0.013 µM; MIC90 [2, 10]: 0.023 µM; MIC90 [2, 11]: 0.013 µM

What does the source list for `Fc1ccc2[nH]cc(CCc3ccnc(N4CCOCC4)n3)c2c1` [Compound 51, 4-(4-(2-(5-Fluoro-1H-indol-3-yl)ethyl)pyrimidin-2-yl)morpholine]?
MIC90 [2, 9]: 50 µM; MIC90 [2, 10]: 25 µM; MIC90 [2, 11]: 25 µM; Activity against Mtb [2]: moderate inhibitors

With `c1ccc2c(CCc3ccnc(N4CCCOCC4)n3)c[nH]c2c1` [Compound 60, 4-(4-(2-(1H-Indol-3-yl)ethyl)pyrimidin-2-yl)-1,4-oxazepane] as the compound, how does the MIC90 [2, 9] read?
The MIC90 was 50 µM.

What about the MIC90 [2, 10] of the same compound?
Its MIC90 is 25 µM.

And the MIC90 [2, 11]?
Its MIC90 is 25 µM.

And the “Activity against Mtb” value [2]?
Its value is “moderate inhibitors”.

What does the source list for `COC1CN(c2nccc(CCc3c[nH]c4ccccc34)n2)C1` [Compound 31, 3-(2-(2-(3-Methoxyazetidin-1-yl)pyrimidin-4-yl)ethyl)-1H-indole]?
X-ray crystallographic screening result [1]: hits; MIC90 [2, 9]: 25 µM; MIC90 [2, 10]: 50 µM; MIC90 [2, 11]: 25 µM; Activity against Mtb [2]: moderate inhibitors

Which ΔTm at 1000 µM [4] does the source give for `c1ccc2c(CCc3nc4c(c(N5CCOCC5)n3)CNC4)c[nH]c2c1` [Compound 81, 4-(2-(2-(1H-Indol-3-yl)ethyl)-6,7-dihydro-5H-pyrrolo[3,4-d]pyrimidin-4-yl)morpholine hydrochloride] here?
The ΔTm at 1000 µM was 3.5 °C.

For `c1ccc2c(CCc3nc4c(c(N5CC6CCC(C5)O6)n3)CNC4)c[nH]c2c1` [Compound 82, 3-(2-(2-(1H-Indol-3-yl)ethyl)-6,7-dihydro-5H-pyrrolo[3,4-d]pyrimidin-4-yl)-8-oxa-3-azabicyclo[3.2.1]octane hydrochloride], which ΔTm at 1000 µM [4] is on record?
The ΔTm at 1000 µM was 2.4 °C.

With `c1ccc2c(CCc3ccnc(N4CCSCC4)n3)c[nH]c2c1` [Compound 15, 4-(4-(2-(1H-Indol-3-yl)ethyl)pyrimidin-2-yl)thiomorpholine] as the compound, how does the MIC90 [2, 9] read?
Its MIC90 is 100 µM.

What about the MIC90 [2, 10] of the same compound?
Its MIC90 is 200 µM.

And the MIC90 [2, 11]?
Its MIC90 is 25 µM.

What about the MIC90 [2, 12] of the same compound?
Its MIC90 is 12.5 to 50 µM.

What does the source list for `Cn1cc(CCc2ccnc(N3CCOCC3)n2)c2ccccc21` [Compound 57, 4-(4-(2-(1-Methyl-1H-indol-3-yl)ethyl)pyrimidin-2-yl)morpholine]?
MIC90 [2, 9]: 25 µM; MIC90 [2, 10]: 50 µM; MIC90 [2, 11]: 25 µM; Activity against Mtb [2]: moderate inhibitors

With `Clc1ccc(COC(Cn2ccnc2)c2ccc(Cl)cc2Cl)cc1` (centres unmarked) [econazole] as the compound, how does the “MIC90 of azole anti-fungal drugs” value [6] read?
Its value is 8 µg/mL.

For `c1ccc2c(CCc3ccncc3)c[nH]c2c1` [Compound 7], which Kd [5] is on record?
The Kd was 483 ± 76 µM.

And the “X-ray crystallographic screening result” value [1]?
The value was “hits”.

Which Kd [5] does the source give for `Clc1ccc2[nH]cc(CCc3ccncc3)c2c1` [Compound 8] here?
Its Kd is 5.8 ± 0.7 µM.

Which results are given for `c1ccc2c(CCc3ccnc(N4CC5CCC(C4)O5)n3)c[nH]c2c1` [Compound 58, 3-(4-(2-(1H-Indol-3-yl)ethyl)pyrimidin-2-yl)-8-oxa-3-azabicyclo[3.2.1]octane]?
MIC90 [2, 9]: 50 µM; MIC90 [2, 10]: 200 µM; MIC90 [2, 11]: 25 µM; Activity against Mtb [2]: active, but showed much reduced potency in BSA rich medium

With `c1ccc2c(CCc3nc4c(c(N5CCOCC5)n3)CCNC4)c[nH]c2c1` [Compound 83, 4-(2-(2-(1H-Indol-3-yl)ethyl)-5,6,7,8-tetrahydropyrido[3,4-d]pyrimidin-4-yl)morpholine hydrochloride] as the compound, how does the ΔTm at 1000 µM [4] read?
Its ΔTm at 1000 µM is 1 °C.

With `Brc1ccc2c(c1)N(c1nccc(CCc3c[nH]c4ccccc34)n1)CCO2` [Compound 63, 4-(4-(2-(1H-Indol-3-yl)ethyl)pyrimidin-2-yl)-6-bromo-3,4-dihydro-2H-benzo[b][1,4]oxazine] as the compound, how does the MIC90 [2, 9] read?
Its MIC90 is 50 µM.

And the MIC90 [2, 10]?
The MIC90 was 25 µM.

And the MIC90 [2, 11]?
Its MIC90 is 50 µM.

What about the “Activity against Mtb” value [2] of the same compound?
The value was “moderate inhibitors”.

With `FC(F)(F)Oc1ccc2[nH]cc(CCc3ccnc(N4CCOCC4)n3)c2c1` [Compound 53, 4-(4-(2-(5-(Trifluoromethoxy)-1H-indol-3-yl)ethyl)pyrimidin-2-yl)morpholine] as the compound, how does the MIC90 [2, 9] read?
Its MIC90 is 25 µM.

And the MIC90 [2, 10]?
The MIC90 was 25 µM.

And the MIC90 [2, 11]?
Its MIC90 is 50 µM.

What about the “Activity against Mtb” value [2] of the same compound?
The value was “moderate inhibitors”.

For `FC(F)(F)Oc1ccc2[nH]cc(CCc3ccncc3)c2c1` [Compound 44, 3-(2-(Pyridin-4-yl)ethyl)-5-(trifluoromethoxy)-1H-indole], which Kd [5] is on record?
The Kd was 12.7 ± 2.3 µM.

Which “Inhibition of CYP121A1 / production of mycocyclosin” value [7] does the source give for `c1ccc2c(c1)OCCN2c1nccc(CCc2c[nH]c3ccccc23)n1` [Compound 61, 4-(4-(2-(1H-Indol-3-yl)ethyl)pyrimidin-2-yl)-3,4-dihydro-2H-benzo[b][1,4]oxazine] here?
Its value is “markedly reduced the production of mycocyclosin”.

And the MIC90 [2, 9]?
The MIC90 was 25 µM.

And the MIC90 [2, 10]?
The MIC90 was 12.5 µM.

What about the MIC90 [2, 11] of the same compound?
Its MIC90 is 6.25 µM.

And the MIC90 ([2]; converted from μM value, read-out: MIC90 against Mtb strain H37Rv)?
Its MIC90 is ~2.2 µg/mL.

What about the MIC90 [2, 12] of the same compound?
The MIC90 was 6.25 µM.

And the “Activity against Mtb” value [2]?
The value was “moderate inhibitors”.

With `COc1ccc2[nH]cc(CCc3ccncc3)c2c1` [Compound 43] as the compound, how does the Kd [5] read?
Its Kd is 105 ± 10 µM.

For `Fc1ccc2[nH]cc(CCc3ccncc3)c2c1` [Compound 41], which Kd [5] is on record?
The Kd was 27.3 ± 4.8 µM.

Which Kd [5] does the source give for `Ic1ccc2[nH]cc(CCc3ccncc3)c2c1` [Compound 42, 5-Iodo-3-(2-(pyridin-4-yl)ethyl)-1H-indole] here?
The Kd was 3.2 ± 0.3 µM.

For `c1ccc2c(CCc3ccncn3)c[nH]c2c1` [Compound 10], which ΔTm at 1000 µM [4] is on record?
Its ΔTm at 1000 µM is 3.5 °C.

And the “X-ray crystallographic screening result” value [1]?
Its value is “hits”.

Which “Soret band shift (416.5 nm)” value ([5]; UV-Vis screen) does the source give for `c1ccc2c(CCc3ccnc(N4CCOCC4)n3)c[nH]c2c1` [Compound 14, 4-(4-(2-(1H-Indol-3-yl)ethyl)pyrimidin-2-yl)morpholine] here?
Its value is “lack of shift”.

What about the Kd [3] of the same compound?
The Kd was ~100 µM.

What about the Fold increase [8] of the same compound?
Its Fold increase is 1.5.

And the “X-ray crystallographic screening result” value [1]?
Its value is “hits”.

What about the “Inhibition of CYP121A1 / production of mycocyclosin” value [7] of the same compound?
The value was “markedly reduced the production of mycocyclosin”.

And the MIC90 [2, 9]?
Its MIC90 is 25 µM.

And the MIC90 [2, 10]?
The MIC90 was 25 µM.

What about the MIC90 [2, 11] of the same compound?
Its MIC90 is 12.5 µM.

And the MIC90 [2, 12]?
The MIC90 was 12.5 to 25 µM.

Which “MIC90 of azole anti-fungal drugs” value [6] does the source give for `Clc1ccc(COC(Cn2ccnc2)c2ccc(Cl)cc2Cl)c(Cl)c1` (centres unmarked) [miconazole] here?
The value was 8 µg/mL.

Which results are given for `CC(=O)n1cc(CCc2ccnc(N3CCOCC3)n2)c2ccccc21` [Compound 64, 1-(3-(2-(2-Morpholinopyrimidin-4-yl)ethyl)-1H-indol-1-yl)ethan-1-one]?
MIC90 [2, 9]: > 400 µM; MIC90 [2, 10]: > 400 µM; MIC90 [2, 11]: > 400 µM; Activity against Mtb [2]: essentially lost all activity

With `Clc1ccccc1C(c1ccccc1)(c1ccccc1)n1ccnc1` [clotrimazole] as the compound, how does the “MIC90 of azole anti-fungal drugs” value [6] read?
The value was 11 µg/mL.

Reference: paper PMC8856928, “A new strategy for hit generation: Novel in cellulo active inhibitors of CYP121A1 from Mycobacterium tuberculosis via a combined X-ray crystallographic and phenotypic screening approach (XP screen)” (European Journal of Medicinal Chemistry, 2022)
